Measured values as given in ChEMBL document CHEMBL4033787, “Glutathione S-Transferase π-Activatable O2-(Sulfonylethyl Derived) Diazeniumdiolates Potently Suppress Melanoma in Vitro and in Vivo” (J Med Chem, 2018).
Each block holds one molecule with its values, some of them ahead of it. Calls of active or inactive are those of the source. No cut-off for these calls is given here.

What was measured:
B16 [1] = test: Antiproliferative activity against mouse B16 cells at 1 uM after 72 hrs by MTT assay; assay type: functional, cell-based
HT-29 = test: Antiproliferative activity against human HT-29 cells at 1 uM after 72 hrs by MTT assay; assay type: functional, cell-based
MCF7 [2] = test: Antiproliferative activity against human MCF7 cells at 1 uM after 72 hrs by MTT assay; assay type: functional, cell-based
9L-2 = test: Antiproliferative activity against rat 9L-2 cells at 1 uM after 72 hrs by MTT assay; assay type: functional, cell-based
B16 [3] = test: Antitumor activity against mouse B16 cells implanted in nude mouse assessed as inhibition of tumor growth at 15 mg/kg, iv administered every other day for 20 days relative to control; assay type: functional; settings: 480 h, read-out: TGI
B16 [4] = test: Antiproliferative activity against mouse B16 cells after 72 hrs by MTT assay; assay type: functional, cell-based; settings: B16, 72 h
MCF7 [5] = test: Antiproliferative activity against human MCF7 cells after 72 hrs by MTT assay; assay type: functional, cell-based; settings: MCF7, 72 h
[6] = Antiproliferative activity against mouse JB6 Cl 30-7b cells after 72 hrs by MTT assay; assay type: cell-based
[7] = Selectivity index, ratio of IC50 for mouse JB6 Cl 30-7b cells to IC50 for mouse B16 cells; assay type: functional
[8] = Substrate activity at GST-Pi in mouse B16 cells assessed as increase in NO release after 8 hrs by DAF-FM DA dye-based flow cytometric analysis; assay type: ADME, cell-based
[9] = Substrate activity at GST-Pi in mouse B16 cells assessed as increase in NO release at 20 uM by Griess assay; assay type: ADME, cell-based; settings: TDE = time-dependent effect
[10] = Substrate activity at GST-Pi in mouse JB6 Cl 30-7b cells assessed as NO release at 20 uM after 8 hrs by Griess assay; assay type: ADME, cell-based
B16 [11] = test: Antiproliferative activity against mouse B16 cells at 3 uM after 24 hrs in presence of NO scavenger hemoglobin by MTT assay; assay type: functional, cell-based
B16 [12] = test: Antiproliferative activity against mouse B16 cells at 3 uM after 24 hrs in presence of NO scavenger carboxy-PTIO by MTT assay; assay type: functional, cell-based
B16 [13] = test: Antiproliferative activity against mouse B16 cells at 3 uM after 24 hrs in presence of GST-Pi inhibitor etacrynic acid by MTT assay; assay type: functional, cell-based
[14] = Drug metabolism assessed as GST-Pi (unknown origin)-mediated compound decomposition at 40 uM by UV spectrophotometric analysis; assay type: ADME; settings: human, TDE = time-dependent effect
[15] = Drug metabolism assessed as GSTalpha (unknown origin)-mediated compound decomposition at 40 uM by UV spectrophotometric analysis; assay type: ADME; settings: human
B16 [16] = test: Antitumor activity against mouse B16 cells implanted in iv dosed nude mouse assessed as reduction in tumor volume administered every other day for 20 days; assay type: functional, organism-based
B16 [17] = test: Antitumor activity against mouse B16 cells implanted in iv dosed nude mouse assessed as reduction in tumor weight administered every other day for 20 days; assay type: functional, organism-based
B16 [18] = test: Induction of nitration of mitochondrial cytochrome C in mouse B16 cells assessed as increase in nitrated cytochrome C levels at 10 uM after 24 hrs by Western blot analysis; assay type: functional, cell-based
B16 [19] = test: Antitumor activity against mouse B16 cells implanted in nude mouse assessed as inhibition of tumor growth at 7.5 mg/kg, iv administered every other day for 20 days relative to control; assay type: functional; settings: 480 h, read-out: TGI
B16 [20] = test: Antitumor activity against mouse B16 cells implanted in nude mouse assessed as inhibition of tumor growth at 30 mg/kg, iv administered every other day for 20 days relative to control; assay type: functional; settings: 480 h, read-out: TGI
Mus musculus [21] = test: Toxicity in mouse assessed as mortality at 7.5 to 30 mg/kg, iv dosed for every other day for 20 days; assay type: organism-based; settings: in vivo, 480 h
Mus musculus [22] = test: Toxicity in mouse assessed as weight loss at 7.5 to 30 mg/kg, iv dosed for every other day for 20 days; assay type: organism-based; settings: in vivo, 480 h
B16 [23] = test: Induction of nitration of mitochondrial cytochrome C in mouse B16 cells assessed as increase in nitrated cytochrome C levels at 10 uM after 24 hrs in presence of NO scavenger hemoglobin by Western blot analysis; assay type: functional, cell-based
B16 [24] = test: Induction of nitration of mitochondrial cytochrome C in mouse B16 cells implanted in iv dosed mouse assessed as increase in nitrated cytochrome C levels administered every other day for 20 days by Western blot analysis; assay type: functional, organism-based
[25] = Stability of compound in normal saline after 500 mins by UV spectrophotometric analysis; assay type: physicochemical; settings: buffer
B16 [26] = test: Antiproliferative activity against mouse B16 cells after 72 hrs in presence of equimolar concentration of (S)-2-amino-5-((R)-1-(carboxymethylamino)-1-oxo-3-(vinylsulfonyl)propan-2-ylamino)-5-oxopentanoic acid by MTT assay; assay type: functional, cell-based; settings: B16, 72 h
B16 [27] = test: Antiproliferative activity against mouse B16 cells after 72 hrs in presence of equimolar concentration of 4-hydroxy-1-(oxido-NNO-azoxy)piperidine by MTT assay; assay type: functional, cell-based; settings: B16, 72 h

SMILES: CCOC(=O)CNC(=O)[C@H](CS(=O)(=O)CCO/N=[N+](\[O-])N(CCCl)CCCl)NC(=O)CC[C@H](N)C(=O)OCC
Activity (B16 [1]): Active
Activity (HT-29): Active
Activity (MCF7 [2]): Active
Activity (9L-2): inactive

SMILES: CN(C)/N=N/c1[nH]cnc1C(N)=O [DACARBAZINE]
inhibition in vivo at 15 mg/kg (B16 [3]): 49.9%

SMILES: N[C@@H](CCC(=O)N[C@@H](CS(=O)(=O)CCO/N=[N+](\[O-])N(CCCl)CCCl)C(=O)NCC(=O)O)C(=O)O
Activity (B16 [1]): Active
Activity (HT-29): Active
Activity (MCF7 [2]): Active
Activity (9L-2): inactive
IC50 (B16 [4]): 404 nM
IC50 (MCF7 [5]): 611 nM

SMILES: N[C@@H](CCC(=O)N[C@@H](CS(=O)(=O)CCO/N=[N+](\[O-])N1CCCC1CO)C(=O)NCC(=O)O)C(=O)O (stereo not given in full)
Activity (B16 [1]): Active
Activity (HT-29): Active
Activity (MCF7 [2]): Active
Activity (9L-2): inactive

SMILES: N[C@@H](CCC(=O)N[C@@H](CS(=O)(=O)CCOP(=O)(N(CCCl)CCCl)N(CCCl)CCCl)C(=O)N[C@@H](C(=O)O)c1ccccc1)C(=O)O [CANFOSFAMIDE]
IC50 (B16 [4]): 710 nM
IC50 (MCF7 [5]): 870 nM

SMILES: N[C@@H](CCC(=O)N[C@@H](CS(=O)(=O)CCO/N=[N+](\[O-])N1CCC(O)CC1)C(=O)NCC(=O)O)C(=O)O
Activity (B16 [1]): Active
Activity (HT-29): Active
Activity (MCF7 [2]): Active
Activity (9L-2): inactive
IC50 (B16 [4]): 184 nM
IC50 (MCF7 [5]): 306 nM
IC50 [6]: 1400 nM
Ratio IC50 [7]: 8
Drug metabolism [8]: Dose-dependent effect
Drug metabolism [9]: Tde
Drug metabolism [10]: Metabolite_Notdetected
Activity (B16 [11]): inactive
Activity (B16 [12]): inactive
Activity (B16 [13]): inactive
Drug metabolism [14]: Tde
Drug metabolism [15]: Metabolite_Notdetected
Activity (B16 [16]): Dose-dependent effect
Activity (B16 [17]): Dose-dependent effect
Activity (B16 [18]): Active
inhibition in vivo at 15 mg/kg (B16 [3]): 76.2%
inhibition in vivo at 7.5 mg/kg (B16 [19]): 42.3%
inhibition in vivo at 30 mg/kg (B16 [20]): 84.8%
Activity (Mus musculus [21]): Non-Toxic
Activity (Mus musculus [22]): Non-Toxic
Activity (B16 [23]): Active
Activity (B16 [24]): Dose-dependent effect
Stability [25]: Stable

SMILES: N[C@@H](CCC(=O)N[C@@H](CS(=O)(=O)CCO/N=[N+](\[O-])N1CCCC1)C(=O)NCC(=O)O)C(=O)O
Activity (B16 [1]): Active
Activity (HT-29): Active
Activity (MCF7 [2]): Active
Activity (9L-2): inactive

IC50 (B16 [4]): 928 nM
IC50 (B16 [26]): 553 nM
SMILES: [O-]/[N+](=N\O)N1CCC(O)CC1

SMILES: CCOC(=O)N1CCN(/[N+]([O-])=N/OCCS(=O)(=O)C[C@H](NC(=O)CC[C@H](N)C(=O)O)C(=O)NCC(=O)O)CC1
Activity (B16 [1]): Active
Activity (HT-29): Active
Activity (MCF7 [2]): Active
Activity (9L-2): inactive

IC50 (B16 [4]): 1910 nM
IC50 (B16 [27]): 553 nM
SMILES: C=CS(=O)(=O)C[C@H](NC(=O)CC[C@H](N)C(=O)O)C(=O)NCC(=O)O
Activity (B16 [23]): inactive

SMILES: COC(=O)CNC(=O)[C@H](CS(=O)(=O)CCO/N=[N+](\[O-])N(CCCl)CCCl)NC(=O)CC[C@H](N)C(=O)OC
Activity (B16 [1]): Active
Activity (HT-29): Active
Activity (MCF7 [2]): Active
Activity (9L-2): inactive

SMILES: CCOC(=O)N1CCN(/[N+]([O-])=N/Oc2ccc([N+](=O)[O-])cc2[N+](=O)[O-])CC1
IC50 (B16 [4]): 1340 nM
IC50 (MCF7 [5]): 993 nM
Drug metabolism [10]: Metabolite_Notdetected

IC50 (B16 [4]): 195 nM
IC50 (MCF7 [5]): 338 nM
SMILES: CCOC(=O)N1CCN(/[N+]([O-])=N/OCCS(=O)(=O)C[C@H](NC(=O)CC[C@H](N)C(=O)OC)C(=O)NCC(=O)OC)CC1
Activity (B16 [1]): Active
Activity (HT-29): Active
Activity (MCF7 [2]): Active
Activity (9L-2): inactive
